Results on 24 compounds are retold here after patent publication US6545011B2, “Substituted 4,9-dihydrocyclopenta[imn]phenanthridine-5-ones, derivatives thereof and their uses” (Guilford Pharmaceuticals Inc., priority 2000, dated 2003).

For orientation: IC50 means the concentration that gives 50% inhibition.

Assay [1] relates to ischemia and reperfusion of the heart. As to conditions: rabbit, cited from earlier work.
The subject of assay [2] is MSU crystal-induced neutrophil recruitment. As to the kind of experiment: Gout model: MSU crystal-induced neutrophil recruitment (peritonitis). The class given is in vivo, mouse. How it is done: Male outbread Swiss albino mice (20-22 g body weight) were purchased from Banton and Kingsman (T.O. strain; Hull, Humberside) and maintained on a standard chow pellet diet with tap water ad libitum and a 12:00 h light/dark cycle. All animals were housed for 1 week prior to experimentation to allow body weight to reach 28-30 g.
1,11b-dihydrobenzopyrano[4,3,2-de ]isoquinolin-1-one was dissolved in 100% DMSO at room temperature at a concentration of 45 mg in 2 ml. The compound was then injected into the peritoneal cavity, so as each mouse received a single dose corresponding to 45 mg/2 ml/kg (e.g. 60 μl for a mouse of 30 g). Control mice received DMSO at 2 ml/kg i.p. A third group of mice which were left untreated were added to control for potential effects of the vehicle. The study involved therefore, the following three groups: group A, untreated mice, n=6, group B, DMSO-treated mice, n=8, and group C, mice treated with 1,11b-dihydrobenzopyrano[4,3,2-de ]isoquinolin-1-one, n=8.
MSU crystal-induced neutrophil recruitment was tested as follows. In all cases, mice were treated 1 h after the treatment noted above, with MSU crystals. A homogenous suspension of MSU crystals was obtained by a 30 min rotation. Peritonitis was induced by injection of 3 mg MSU crystals in 0.5 ml PBS (0.1 M, pH 7.4), and the recruitment of neutrophils into the cavity evaluated at the 6 h time point (Getting, et al., 1997, J. Pharmacol. Exp. Ther. 283: 123-130). Animals were then euthanised by CO2 exposure and the peritoneal cavity washed with 3 ml of PBS supplemented with 3 mM EDTA and 25 U/ml heparin.
An aliquot (100 μl) of the lavage fluid was then diluted 1:10 in Turk's solution (0.01% crystal violet in 3% acetic acid). The samples were then vortexed and 10 μl of the stained cell solution were placed in a Neubauer haematocymometer and neutrophils numbers counted using a light microscope (Olympus B061). […]
Data are shown for single mice, and also shown as mean±S.E. of (n) mice per group. Statistical differences were determined by ANOVA, plus Bonferroni test. […]

Assay [3] has as its target T1, purified recombinant human PARP (Homo sapiens, UniProt P09874).
T1 construct: purchased Trevigan (Gaithersburg, Md.)
The assay is described as follows: PARP enzyme assay (IC50), [3H]NAD incorporation. The class given is biochemical. The conditions noted are these: approximate values, read-out: Inhibition IC50. The method, then: The reaction is initiated by incubating the mixture at 25° C. After 15 minutes of incubation, the reaction is terminated by adding 500 microliters of ice cold 20% (w/v) trichloroacetic acid. The precipitate formed is transferred onto a glass fiber filter (Packard Unifilter-GF/B) and washed three times with ethanol. After the filter is dried, the radioactivity is determined by scintillation counting.
Using the PARP assay described above, approximate IC50 (μM) values were obtained as shown in the following Table III, which also include specific embodiments of the compounds of the present invention: […]

Another assay relates to PARP. As to conditions: read-out: IC50 for inhibiting PARP; reported by Suto et al.; cited from earlier work.

Values joined by “and” are separate entries in the source; they are usually repeats but may differ in a detail not shown here. Identical values can stand only once.

T1 sequence (P09874 whole entry): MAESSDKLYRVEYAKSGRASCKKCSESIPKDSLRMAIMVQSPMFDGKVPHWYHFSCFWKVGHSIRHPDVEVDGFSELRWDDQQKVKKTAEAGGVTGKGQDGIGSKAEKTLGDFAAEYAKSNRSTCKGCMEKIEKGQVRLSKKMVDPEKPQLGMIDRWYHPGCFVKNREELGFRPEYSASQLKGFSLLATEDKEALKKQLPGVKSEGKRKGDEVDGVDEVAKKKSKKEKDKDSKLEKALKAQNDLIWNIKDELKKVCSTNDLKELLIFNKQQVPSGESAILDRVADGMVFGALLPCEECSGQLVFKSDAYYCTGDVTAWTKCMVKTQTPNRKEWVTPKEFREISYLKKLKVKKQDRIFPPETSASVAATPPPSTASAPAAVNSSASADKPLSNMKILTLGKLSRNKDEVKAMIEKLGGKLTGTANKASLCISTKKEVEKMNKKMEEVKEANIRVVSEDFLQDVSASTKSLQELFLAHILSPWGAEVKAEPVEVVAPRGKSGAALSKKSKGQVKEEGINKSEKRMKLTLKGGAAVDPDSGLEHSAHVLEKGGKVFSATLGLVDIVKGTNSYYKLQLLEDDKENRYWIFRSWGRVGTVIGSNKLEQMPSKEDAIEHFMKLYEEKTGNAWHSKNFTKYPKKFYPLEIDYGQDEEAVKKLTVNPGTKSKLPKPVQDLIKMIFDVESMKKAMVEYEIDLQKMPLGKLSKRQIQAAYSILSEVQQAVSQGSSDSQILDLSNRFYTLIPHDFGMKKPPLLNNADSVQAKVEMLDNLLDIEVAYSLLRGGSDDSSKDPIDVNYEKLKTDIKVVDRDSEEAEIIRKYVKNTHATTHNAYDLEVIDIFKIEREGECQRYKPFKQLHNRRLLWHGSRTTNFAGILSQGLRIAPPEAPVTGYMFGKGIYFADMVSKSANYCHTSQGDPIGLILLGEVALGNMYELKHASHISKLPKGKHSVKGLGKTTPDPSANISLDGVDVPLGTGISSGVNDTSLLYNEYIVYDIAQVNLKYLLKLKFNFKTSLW

As for `Oc1cccc2c(O)nccc12` [1,5-dihydroxyisoquinoline], in assay [1] (single injection 1 mg/kg), the “reduction in infarct size” value was 38-48%. For the compound `O=C1N=Cc2cccc3c2C1c1ccccc1O3` (centres unmarked) [1,11b-dihydrobenzopyrano[4,3,2-de]isoquinolin-1-one], in assay [2] (45 mg/kg i.p. 1 h prior to 3 mg MSU crystals, 6 h, group C, n=8, vehicle group B 6.30 ± 0.33), the “Neutrophils (mean ± S.E.)” value is 2.85 ± 0.34 (8)* 10^6 per mouse. In addition, in assay [2] (45 mg/kg i.p. 1 h prior to 3 mg MSU crystals, peritoneal lavage at 6 h, group C, one value per mouse), the “Neutrophil Numbers (single mice)” value was 2.4 10^6 per mouse (2×) and 3.0 10^6 per mouse (2×) and 2.7 10^6 per mouse and 2.1 10^6 per mouse (2×) and 5.1 10^6 per mouse. Besides, the “inhibition of cell influx vs. the vehicle group” value in assay [2] (45 mg/kg i.p., 6 h after MSU crystals) amounted to 55%. Take `NC(=O)c1cccc(N)c1` [3-amino-benzamide]: in assay [1] (single injection 10 mg/kg, one minute before occlusion or before reperfusion), the “reduction in infarct size in the heart” value is on record as 32-42%. On to `O=c1[nH]c2cccc3c2c2c(cccc12)C3` [Compound 1, 5,9-dihydro-4[H]cyclopenta[lmn]phenathridin-5-one], for which the IC50 in assay [3] stood at 100 nM. Take `O=c1[nH]c2ccc(S(=O)(=O)O)c3c2c2c(cccc12)C3` [Compound 2, 5,9-Dihydro-5-oxo-4[H]cyclopenta[lmn]phenathridine-1-sulfonic acid]: in assay [3], the IC50 came to 110 nM.

Take `O=c1[nH]c2ccc([N+](=O)[O-])c3c2c2c(cccc12)C3` [Compound 4, 5,9-dihydro-1-nitro-4[H]cyclopenta[lmn]phenathridin-5-one]: the IC50 in assay [3] amounted to 111 nM.

Regarding `Nc1ccc2[nH]c(=O)c3cccc4c3c2c1C4` [Compound 5, 5,9-dihydro-1-amino-4[H]cyclopenta[lmn]phenathridin-5-one], the IC50 in assay [3] came to 60 nM.

Regarding `O=c1[nH]c2ccc(S(=O)(=O)N3CCN(c4ccccn4)CC3)c3c2c2c(cccc12)C3` [Compound 6], the IC50 in assay [3] turned out to be 380 nM.

Take `O=c1[nH]c2ccc(S(=O)(=O)NCCN3CCOCC3)c3c2c2c(cccc12)C3` [Compound 8, 5,9-Dihydro-N-[2-(4-morpholinyl)ethyl]-1-oxo-[H]cyclopenta[lmn]phenathridine-1-sulfonamide]: the IC50 in assay [3] came out at 70 nM. Same read-out and setting: to `CN1CCN(S(=O)(=O)c2ccc3[nH]c(=O)c4cccc5c4c3c2C5)CC1` [Compound 9, 5,9-Dihydro-1-[(4-methyl-1-piperazinyl)sulfonyl]-4[H]cyclopenta[lmn]phenathridin-5-one] belongs 130 nM. With `O=c1[nH]c2ccc(S(=O)(=O)NCCc3ccncc3)c3c2c2c(cccc12)C3` [Compound 10], the IC50 in assay [3] worked out at 70 nM. For the compound `O=c1[nH]c2ccc(S(=O)(=O)NCCN3CCCCC3)c3c2c2c(cccc12)C3` [Compound 11, 5,9-Dihydro-5-oxo-N-[2-(1-piperidinyl)ethyl]-4[H]cyclopenta[lmn]phenathridine-1-sulfonamide], the IC50 in assay [3] was found to be 50 nM. On to `O=c1[nH]c2ccc(S(=O)(=O)N3CCOCC3)c3c2c2c(cccc12)C3` [Compound 12, 5,9-Dihydro-1-(4-morpholinylsulfonyl)-4[H]cyclopenta[lmn]phenathridin-5-one], for which the IC50 in assay [3] came out at 40 nM. As to `CC(=O)Nc1ccc2[nH]c(=O)c3cccc4c3c2c1C4` [Compound 13, 5,9-Dihydro-5-oxo-4[H]cyclopenta[mn]phenathridin-1-yl acetamide], the IC50 in assay [3] worked out at 50 nM. With `O=C(Nc1ccc2[nH]c(=O)c3cccc4c3c2c1C4)c1cccc(F)c1` [Compound 14, N-(5,9-Dihydro-5-oxo-4[H]cyclopenta[lmn]phenathridin-1-yl)-3-fluorbenzamide], the half-maximal inhibitory concentration (IC50) in assay [3] was 80 nM.

`O=c1[nH]c2cccc3c(=O)c4cccc1c4c23` [Compound 16, 9-oxo-5,9-dihydro-4[H]cyclopenta[lmn]phenathridin-5-one]: the IC50 in assay [3] was found to be 70 nM. For the compound `O=c1[nH]c2cc(F)cc3c(=O)c4cc(F)cc1c4c23` [Compound 17], the IC50 in assay [3] was found to be 30 nM. With `O=c1[nH]c2cccc3c2c2c(cccc12)C3O` (centres unmarked) [Compound 18], in assay [3], the IC50 was determined as 120 nM.

Consider `O=c1[nH]c2cc(F)cc3c2c2c(cc(F)cc12)C3O` (centres unmarked) [Compound 19], for which the IC50 in assay [3] amounted to 100 nM.

As to `CC(=O)OC1c2cccc3[nH]c(=O)c4cccc1c4c23` (centres unmarked) [Compound 20], the IC50 in assay [3] stood at 810 nM. Same read-out and setting: to `CC(=O)OC1c2cc(F)cc3[nH]c(=O)c4cc(F)cc1c4c23` (centres unmarked) [Compound 21, 5,9-Dihydro-2,7-difluoro-5-oxo-4[H]cyclopenta[lmn]phenathridin-9-yl acetate] belongs 360 nM; to `O=c1[nH]c2cc(Cl)cc3[nH]c4cc(Cl)cc1c4c23` [Compound 22, 2,7,-Dichloro-5,9-dihydro-4[H]pyrrol[2,3,4,5-lmn]phenathridin-5-one], 20 nM.

Regarding `O=C1NCCc2c(OCCCCN3CCCCC3)cccc21` [DPQ, 3,4-dihydro-5-[4-(1-piperidinyl)-butoxy]-1(2H)-isoquinolinone], the IC50 in the assay with PARP is 40 nM. On to “N-(5,9-Dihydro-5-oxo-4[H]cyclopenta[lmn]phenathridin-1-yl)-4-fluorbenzamide [Compound 15]”, for which the IC50 in assay [3] is 70 nM.
